No end group written: not given here.
Legend:
human erythrocytes = assay: Hemolytic activity; type: cell-based; conditions: 0.1–100 μmol L^−1 in PBS, room temperature, 1 h, absorbance 405 nm
Description: Assays against freshly collected human erythrocytes were performed following protocols described by Pedron et al.[54]. Briefly, peptide aliquots at concentrations ranging from 0.1 to 100 μmol L^−1 were incubated with a suspension of erythrocytes at room temperature for 1 h. The samples were then centrifuged, and the absorbance of the supernatant was measured at 405 nm. […] The surfactant SDS and PBS buffer were used as positive[81],[82] and negative controls, respectively. Sodium heparin was used as an anticoagulant when collecting human blood. Three biological repeats were performed. All experiments were performed in accordance with the protocol CEUA/IB #I-1345/15 approved by the Instituto Butantan.

[1] = Resistance to proteolytic degradation in fetal bovine serum; type: in vitro ADME; conditions: 25% fetal bovine serum in water, 37 °C
Description: Stability assays were performed following the protocol described by Torres et al.[67]. Briefly, a peptide solution was added to GIBCO fetal bovine serum diluted to 25% in water and kept at 37 °C. The degradation kinetics were monitored by liquid chromatography and the percentage of peptide remaining in each case was calculated by integrating the peptide peak area. These experiments were performed as three independent replicates, and aliquots were taken at 0, 0.5, 1, 2, 4, and 6 h.

[2] = Mouse body weight in the skin abscess infection model; type: in vivo
Description: (§1) The anti-infective activity of the peptides VmCT1, temporin A, VT, and TV against A. baumannii ATCC 19606 was evaluated as described by Torres et al.[7],[83] Bacteria were grown in tryptic soy broth medium to an optical density of 0.5 at 600 nm. Cells were washed twice with sterile phosphate-buffered saline (pH 7.4, 13,000 rpm for 1 min) and resuspended to a final concentration of 1 × 10^7 CFU/20 μL. To generate the skin infection, female CD-1 mice (6-weeks-old) were first anesthetized with isoflurane and their backs were shaved. Using a needle, a superficial linear abrasion was made on the shaved area of the mice to injure just the stratum corneum and the upper layer of the epidermis. An aliquot of 20 μL containing 1 × 10^7 CFU of A. baumannii was then inoculated over the wound area with a pipette tip. The next day, the infected area was treated with the peptides (i.e., VmCT1, temporin A, VT, and TV), which were administered onto the abscess at their MIC. The animals were euthanized, and the scarified skin area removed 2- and 4-days post-infection. The excised area was homogenized using a bead beater for 20 min (25 Hz) and serially diluted for CFU quantification. Eight mice were used per group (n = 8). All experiments were performed in accordance with protocol 806763 approved by the IACUC at the University of Pennsylvania.

A. baumannii ATCC 19606 = assay: Skin abscess infection mouse model, CFU quantification; type: in vivo, Acinetobacter baumannii (in female CD-1 mice); conditions: female CD-1 mice, 1 × 10^7 CFU, peptide onto the abscess at MIC
Description: as §1

[3] = LC peak area, time 0 = 100, 0.5 h, replicate 1
[4] = LC peak area, time 0 = 100, 0.5 h, replicate 2
[5] = LC peak area, time 0 = 100, 0.5 h, replicate 3
[6] = LC peak area, time 0 = 100, 1 h, replicate 1
[7] = LC peak area, time 0 = 100, 1 h, replicate 2
[8] = LC peak area, time 0 = 100, 1 h, replicate 3
[9] = LC peak area, time 0 = 100, 2 h, replicate 1
[10] = LC peak area, time 0 = 100, 2 h, replicate 2
[11] = LC peak area, time 0 = 100, 2 h, replicate 3
[12] = LC peak area, time 0 = 100, 4 h, replicate 1
[13] = LC peak area, time 0 = 100, 4 h, replicate 2
[14] = LC peak area, time 0 = 100, 4 h, replicate 3
[15] = LC peak area, time 0 = 100, 6 h, replicate 1
[16] = LC peak area, time 0 = 100, 6 h, replicate 2
[17] = LC peak area, time 0 = 100, 6 h, replicate 3
[18] = day 0 = 100, Day 1, replicate 1
[19] = day 0 = 100, Day 1, replicate 2
[20] = day 0 = 100, Day 1, replicate 3
[21] = day 0 = 100, Day 2, replicate 1
[22] = day 0 = 100, Day 2, replicate 2
[23] = day 0 = 100, Day 2, replicate 3
[24] = day 0 = 100, Day 3, replicate 1
[25] = day 0 = 100, Day 3, replicate 2
[26] = day 0 = 100, Day 3, replicate 3
[27] = day 0 = 100, Day 4, replicate 1
[28] = day 0 = 100, Day 4, replicate 2
[29] = day 0 = 100, Day 4, replicate 3

Substance: SLGALINVLKSGG-NH2 [DV]
- Hemolytic activity (concentration of peptide needed to kill 10% of red blood cells) (human erythrocytes): 0.1 µmol/L
- Peptide remaining [1, 3]: 13.4
- Peptide remaining [1, 4]: 10.6
- Peptide remaining [1, 5]: 0.0
- Peptide remaining [1, 6]: 0.0
- Peptide remaining [1, 7]: 0.0
- Peptide remaining [1, 8]: 0.0
- Peptide remaining [1, 9]: 0.0
- Peptide remaining [1, 10]: 0.0
- Peptide remaining [1, 11]: 0.0
- Peptide remaining [1, 12]: 0.0
- Peptide remaining [1, 13]: 0.0
- Peptide remaining [1, 14]: 0.0
- Peptide remaining [1, 15]: 0.0
- Peptide remaining [1, 16]: 0.0
- Peptide remaining [1, 17]: 0.0

Substance: FLGSLWRKAGTVF-NH2 [VD]
- Hemolytic activity (concentration of peptide needed to kill 10% of red blood cells) (human erythrocytes): no hemolytic activity was detected
- Peptide remaining [1, 3]: 33.7
- Peptide remaining [1, 4]: 43.8
- Peptide remaining [1, 5]: 94.3
- Peptide remaining [1, 6]: 66.3
- Peptide remaining [1, 7]: 77.3
- Peptide remaining [1, 8]: 49.4
- Peptide remaining [1, 9]: 38.2
- Peptide remaining [1, 10]: 88.5
- Peptide remaining [1, 11]: 63.8
- Peptide remaining [1, 12]: 66.4
- Peptide remaining [1, 13]: 45.3
- Peptide remaining [1, 14]: 44.7
- Peptide remaining [1, 15]: 56.9
- Peptide remaining [1, 16]: 59.8
- Peptide remaining [1, 17]: 0.0

Substance: FLPLLWRVASGVF-NH2 [VT]
- Hemolytic activity (concentration of peptide needed to kill 10% of red blood cells) (human erythrocytes): 0.2 µmol/L
- Peptide remaining after 30 min ([1]; LC peak area vs time 0, 30 min, three replicates): totally degraded
- Peptide remaining [1, 3]: 0
- Peptide remaining [1, 4]: 0
- Peptide remaining [1, 5]: 0
- Peptide remaining [1, 7]: 0
- Peptide remaining [1, 8]: 0
- Peptide remaining [1, 9]: 0
- Peptide remaining [1, 10]: 0
- Peptide remaining [1, 11]: 0
- Peptide remaining [1, 12]: 0
- Peptide remaining [1, 13]: 0
- Peptide remaining [1, 14]: 0
- Peptide remaining [1, 15]: 0
- Peptide remaining [1, 16]: 0
- Peptide remaining [1, 17]: 0
- remaining at 1 h ([1]; fetal bovine serum, 25% in water, LC peak area, time 0 = 100, 1 h, replicate 1, read-out: Peptide remaining): 0%
- Mouse body weight, normalized to the weight at the beginning of the experiment [2, 18]: 95
- Mouse body weight, normalized to the weight at the beginning of the experiment [2, 19]: 100
- Mouse body weight, normalized to the weight at the beginning of the experiment [2, 20]: 100
- Mouse body weight, normalized to the weight at the beginning of the experiment [2, 21]: 90
- Mouse body weight, normalized to the weight at the beginning of the experiment [2, 22]: 105
- Mouse body weight, normalized to the weight at the beginning of the experiment [2, 23]: 100
- Mouse body weight, normalized to the weight at the beginning of the experiment [2, 24]: 90
- Mouse body weight, normalized to the weight at the beginning of the experiment [2, 25]: 100
- Mouse body weight, normalized to the weight at the beginning of the experiment [2, 26]: 95
- Mouse body weight, normalized to the weight at the beginning of the experiment [2, 27]: 95
- Mouse body weight, normalized to the weight at the beginning of the experiment [2, 28]: 100
- Mouse body weight, normalized to the weight at the beginning of the experiment [2, 29]: 95

Substance: GLGALLNVIKSGL-NH2 [AV]
- Hemolytic activity (concentration of peptide needed to kill 10% of red blood cells) (human erythrocytes): 100 µmol/L
- Peptide remaining [1, 3]: 31.1
- Peptide remaining [1, 4]: 34.0
- Peptide remaining [1, 5]: 0.0
- Peptide remaining [1, 6]: 27.7
- Peptide remaining [1, 7]: 32.8
- Peptide remaining [1, 8]: 0.0
- Peptide remaining [1, 9]: 39.7
- Peptide remaining [1, 10]: 49.0
- Peptide remaining [1, 11]: 0.0
- Peptide remaining [1, 12]: 26.2
- Peptide remaining [1, 13]: 41.8
- Peptide remaining [1, 14]: 0.0
- Peptide remaining [1, 15]: 0.0
- Peptide remaining [1, 16]: 0.0
- Peptide remaining [1, 17]: 0.0

Substance: polymyxin B
- A. baumannii load in the infected skin area (CFU quantification) (A. baumannii ATCC 19606; Day 2, mouse 1 of 8): 2000
- A. baumannii load in the infected skin area (CFU quantification) (A. baumannii ATCC 19606; Day 2, mouse 2 of 8): 4000
- A. baumannii load in the infected skin area (CFU quantification) (A. baumannii ATCC 19606; Day 2, mouse 3 of 8): 8000
- A. baumannii load in the infected skin area (CFU quantification) (A. baumannii ATCC 19606; Day 2, mouse 4 of 8): 8000
- A. baumannii load in the infected skin area (CFU quantification) (A. baumannii ATCC 19606; Day 2, mouse 5 of 8): 8000
- A. baumannii load in the infected skin area (CFU quantification) (A. baumannii ATCC 19606; Day 2, mouse 6 of 8): 4000
- A. baumannii load in the infected skin area (CFU quantification) (A. baumannii ATCC 19606; Day 2, mouse 7 of 8): 4000
- A. baumannii load in the infected skin area (CFU quantification) (A. baumannii ATCC 19606; Day 2, mouse 8 of 8): 2000
- A. baumannii load in the infected skin area (CFU quantification) (A. baumannii ATCC 19606; Day 4, mouse 1 of 8): 2000
- A. baumannii load in the infected skin area (CFU quantification) (A. baumannii ATCC 19606; Day 4, mouse 2 of 8): 2000
- A. baumannii load in the infected skin area (CFU quantification) (A. baumannii ATCC 19606; Day 4, mouse 3 of 8): 2000
- A. baumannii load in the infected skin area (CFU quantification) (A. baumannii ATCC 19606; Day 4, mouse 4 of 8): 2000
- A. baumannii load in the infected skin area (CFU quantification) (A. baumannii ATCC 19606; Day 4, mouse 5 of 8): 4000
- A. baumannii load in the infected skin area (CFU quantification) (A. baumannii ATCC 19606; Day 4, mouse 6 of 8): 8000
- A. baumannii load in the infected skin area (CFU quantification) (A. baumannii ATCC 19606; Day 4, mouse 7 of 8): 4000
- A. baumannii load in the infected skin area (CFU quantification) (A. baumannii ATCC 19606; Day 4, mouse 8 of 8): 2000
- Mouse body weight, normalized to the weight at the beginning of the experiment [2, 18]: 90
- Mouse body weight, normalized to the weight at the beginning of the experiment [2, 19]: 95
- Mouse body weight, normalized to the weight at the beginning of the experiment [2, 20]: 100
- Mouse body weight, normalized to the weight at the beginning of the experiment [2, 21]: 90
- Mouse body weight, normalized to the weight at the beginning of the experiment [2, 22]: 100
- Mouse body weight, normalized to the weight at the beginning of the experiment [2, 23]: 100
- Mouse body weight, normalized to the weight at the beginning of the experiment [2, 24]: 90
- Mouse body weight, normalized to the weight at the beginning of the experiment [2, 25]: 100
- Mouse body weight, normalized to the weight at the beginning of the experiment [2, 26]: 105
- Mouse body weight, normalized to the weight at the beginning of the experiment [2, 27]: 95
- Mouse body weight, normalized to the weight at the beginning of the experiment [2, 28]: 100
- Mouse body weight, normalized to the weight at the beginning of the experiment [2, 29]: 110

Substance: GLLKRIKTLL-NH2 [Anoplin, reference compound]
- Hemolytic activity (concentration of peptide needed to kill 10% of red blood cells) (human erythrocytes): 50 µmol/L
- Peptide remaining [1, 3]: 22.7
- Peptide remaining [1, 4]: 28.8
- Peptide remaining [1, 5]: 20.2
- Peptide remaining [1, 6]: 20.4
- Peptide remaining [1, 7]: 17.5
- Peptide remaining [1, 8]: 19.1
- Peptide remaining [1, 9]: 14.2
- Peptide remaining [1, 10]: 14.0
- Peptide remaining [1, 11]: 0.0
- Peptide remaining [1, 12]: 0.0
- Peptide remaining [1, 13]: 0.0
- Peptide remaining [1, 14]: 0.0
- Peptide remaining [1, 15]: 0.0
- Peptide remaining [1, 16]: 0.0
- Peptide remaining [1, 17]: 0.0
- remaining at 0.5 h ([1]; fetal bovine serum, 25% in water, LC peak area vs time 0, 30 min, three replicates, read-out: Peptide remaining after 30 min): < 50%

From paper PMC10587126, “Molecular hybridization strategy for tuning bioactive peptide function” (Communications Biology, 2023)
